Measured values taken from patent US12570642B2, “GLP-IR modulating compounds” (Gilead Sciences, Inc., priority 2021, dated 2026).

Biological target: GLP-1R (Homo sapiens, UniProt P43220)
Test: GLP-1R Activation - cAMP Assay
Type: cell-based
Conditions: cAMP increase in CHO cells stably expressing GLP-1R; each compound run on one of the two cAMP assays (Assay 1 or Assay 2, not specified)
How it was run: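 CHO cells stably expressing GLP-1R, plated at 1,000 cells/well overnight, then equilibrated 1 h in HBSS with 20 mM Hepes and 0.1% BSA. Agonist added as 10-point dose response for 30 min at 37 °C. cAMP measured by HTRF (Cisbio Gs Dynamic kit); EC50 from sigmoidal fit.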

Chain of GLP-1R (P43220 24-463): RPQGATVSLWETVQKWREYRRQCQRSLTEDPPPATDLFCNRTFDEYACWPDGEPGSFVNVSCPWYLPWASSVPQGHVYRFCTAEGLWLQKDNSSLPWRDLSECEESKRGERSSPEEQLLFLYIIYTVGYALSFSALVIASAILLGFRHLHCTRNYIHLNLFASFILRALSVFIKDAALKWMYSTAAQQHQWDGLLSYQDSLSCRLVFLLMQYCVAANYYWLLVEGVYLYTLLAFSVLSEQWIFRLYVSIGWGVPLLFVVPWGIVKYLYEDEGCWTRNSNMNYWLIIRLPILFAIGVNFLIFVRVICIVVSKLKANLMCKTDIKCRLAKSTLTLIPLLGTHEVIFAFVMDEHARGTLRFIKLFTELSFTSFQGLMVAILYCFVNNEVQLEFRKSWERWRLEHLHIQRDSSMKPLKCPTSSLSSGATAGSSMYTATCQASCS

SMILES | EC50
CC1(C)COC[C@H]1n1c(Cc2c(F)cc(-c3ccc(F)c(OCc4ccc(Cl)cc4F)n3)cc2F)nc2ccc(C(=O)O)cc21 [Example 303, (S)-2-(4-(6-((4-chloro-2-fluorobenzyl)oxy)-5-fluoropyridin-2-yl)-2,6-difluorobenzyl)-1-(4,4-dimethyltetrahydrofuran-3-yl)-1H-benzo[d]imidazole-6-carboxylic acid] | 0.17 nM
COCCn1c(Cc2c(F)cc(-c3cccc(OCc4ccc(Cl)cc4)n3)c(F)c2F)nc2c(F)cc(C(=O)O)cc21 [Example 377, 2-(4-(6-((4-chlorobenzyl)oxy)pyridin-2-yl)-2,3,6-trifluorobenzyl)-4-fluoro-1-(2-methoxyethyl)-1H-benzo[d]imidazole-6-carboxylic acid] | 0.188 nM
COCCn1c(Cc2cc(F)c(-c3cccc(OCc4ccc5c(c4)CN(C(=O)OC)C5)n3)cc2Cl)nc2c(F)cc(C(=O)O)cc21 [Example 258, 2-(2-chloro-5-fluoro-4-(6-((2-(methoxycarbonyl)isoindolin-5-yl)methoxy)pyridin-2-yl)benzyl)-4-fluoro-1-(2-methoxyethyl)-1H-benzo[d]imidazole-6-carboxylic acid] | 0.24 nM
CC1(C)COC[C@H]1n1c(Cc2cc(F)c(-c3ccc(F)c(OCc4ccc(Cl)cc4F)n3)cc2F)nc2c(F)cc(C(=O)O)cc21 [Example 495, (S)-2-(4-(6-((4-chloro-2-fluorobenzyl)oxy)-5-fluoropyridin-2-yl)-2,5-difluorobenzyl)-1-(4,4-dimethyltetrahydrofuran-3-yl)-4-fluoro-1H-benzo[d]imidazole-6-carboxylic acid] | 0.144 nM
CC1(C)COC[C@H]1n1c(Cc2cc(F)c(-c3cccc(OCc4c(F)cc(C#N)cc4F)n3)cc2F)nc2ccc(C(=O)O)cc21 [Example 493, (S)-2-(4-(6-((4-cyano-2,6-difluorobenzyl)oxy)pyridin-2-yl)-2,5-difluorobenzyl)-1-(4,4-dimethyltetrahydrofuran-3-yl)-1H-benzo[d]imidazole-6-carboxylic acid] | 0.278 nM
COCCn1c(Cc2cc(C)c(-c3cccc(OCc4ccc(C#N)cc4F)n3)cc2Cl)nc2c(F)cc(C(=O)O)cc21 [Example 227, 2-(2-chloro-4-(6-((4-cyano-2-fluorobenzyl)oxy)pyridin-2-yl)-5-methylbenzyl)-4-fluoro-1-(2-methoxyethyl)-1H-benzo[d]imidazole-6-carboxylic acid] | 4.8 nM
CC1(C)COC[C@H]1n1c(Cc2cc(F)c(-c3cccc(OCc4ccc(Cl)cc4Cl)n3)cc2F)nc2ccc(C(=O)O)cc21 [Example 399, (S)-2-(4-(6-((2,4-dichlorobenzyl)oxy)pyridin-2-yl)-2,5-difluorobenzyl)-1-(4,4-dimethyltetrahydrofuran-3-yl)-1H-benzo[d]imidazole-6-carboxylic acid] | 0.124 nM
COCCn1c(Cc2cc(F)c(-c3cccc(OCc4ccc(-c5cnn(C(F)F)c5)cc4F)n3)cc2F)nc2ccc(C(=O)O)cc21 [Example 100, 2-(4-(6-((4-(1-(difluoromethyl)-1H-pyrazol-4-yl)-2-fluorobenzyl)oxy)pyridin-2-yl)-2,5-difluorobenzyl)-1-(2-methoxyethyl)-1H-benzo[d]imidazole-6-carboxylic Acid] | 0.45 nM
CC1(C)COC[C@H]1n1c(Cc2cc(F)c(-c3cccc(OCc4ccc(C5CC5)cc4)n3)cc2F)nc2ccc(C(=O)O)cc21 [Example 431, (S)-2-(4-(6-((4-cyclopropylbenzyl)oxy)pyridin-2-yl)-2,5-difluorobenzyl)-1-(4,4-dimethyltetrahydrofuran-3-yl)-1H-benzo[d]imidazole-6-carboxylic acid] | 0.377 nM
Cc1cc(Cc2nc3c(F)cc(C(=O)O)cc3n2[C@@H]2COCC2(C)C)c(Cl)cc1-c1ccnc(OCc2ccc(Cl)cc2F)n1 [Example 317, (S)-2-(2-chloro-4-(2-((4-chloro-2-fluorobenzyl)oxy)pyrimidin-4-yl)-5-methylbenzyl)-1-(4,4-dimethyltetrahydrofuran-3-yl)-4-fluoro-1H-benzo[d]imidazole-6-carboxylic acid] | 0.451 nM
COCCn1c(Cc2cc(F)c(-c3cccc(OCc4ccc(-c5cn(C)nn5)cc4F)n3)cc2F)nc2ccc(C(=O)O)cc21 [Example 99, 2-(2,5-difluoro-4-(6-((2-fluoro-4-(1-methyl-1H-1,2,3-triazol-4-yl)benzyl)oxy)pyridin-2-yl)benzyl)-1-(2-methoxyethyl)-1H-benzo[d]imidazole-6-carboxylic Acid] | 0.6 nM
COc1cc(Cl)ncc1COc1cccc(-c2cc(F)c(Cc3nc4c(F)cc(C(=O)O)cc4n3[C@@H]3COCC3(C)C)cc2F)n1 [Example 288, (S)-2-(4-(6-((6-chloro-4-methoxypyridin-3-yl)methoxy)pyridin-2-yl)-2,5-difluorobenzyl)-1-(4,4-dimethyltetrahydrofuran-3-yl)-4-fluoro-1H-benzo[d]imidazole-6-carboxylic acid] | 0.041 nM
Cc1ccc(COc2cccc(-c3cc(F)c(Cc4nc5ccc(C(=O)O)cc5n4C4COCC4(C)C)cc3F)n2)c(Cl)n1 (stereo not shown) [Example 286, 2-(4-(6-((2-chloro-6-methylpyridin-3-yl)methoxy)pyridin-2-yl)-2,5-difluorobenzyl)-1-(4,4-dimethyltetrahydrofuran-3-yl)-1H-benzo[d]imidazole-6-carboxylic acid] | 0.099 nM
Cc1cc(Cc2nc3ccc(C(=O)O)cc3n2[C@@H]2COCC2(C)C)c(Cl)cc1-c1ccnc(OCc2ccc(Cl)cc2)n1 [Example 218, (S)-2-(2-chloro-4-(2-((4-chlorobenzyl)oxy)pyrimidin-4-yl)-5-methylbenzyl)-1-(4,4-dimethyltetrahydrofuran-3-yl)-1H-benzo[d]imidazole-6-carboxylic acid] | 0.279 nM
C[C@H]1OCC[C@H]1n1c(Cc2cc(F)c(-c3cccc(OCc4ccc(C#N)cc4F)n3)cc2F)nc2ccc(C(=O)O)cc21 (racemic) [Example 73, 2-(4-(6-((4-cyano-2-fluorobenzyl)oxy)pyridin-2-yl)-2,5-difluorobenzyl)-1-((2R,3R)-2-methyltetrahydrofuran-3-yl)-1H-benzo[d]imidazole-6-carboxylic Acid] | 2.4 nM
Cc1cc(Cc2nc3c(F)cc(C(=O)O)cc3n2[C@@H]2COCC2(C)C)c(Cl)cc1-c1ccc(F)c(OCc2ccc(Cl)cc2F)n1 [Example 334, (S)-2-(2-chloro-4-(6-((4-chloro-2-fluorobenzyl)oxy)-5-fluoropyridin-2-yl)-5-methylbenzyl)-1-(4,4-dimethyltetrahydrofuran-3-yl)-4-fluoro-1H-benzo[d]imidazole-6-carboxylic acid] | 0.067 nM
CC1(C)COC[C@H]1n1c(Cc2cc(F)c(-c3cccc(OCc4ccncc4F)n3)cc2F)nc2ccc(C(=O)O)cc21 [Example 429, (S)-2-(2,5-difluoro-4-(6-((3-fluoropyridin-4-yl)methoxy)pyridin-2-yl)benzyl)-1-(4,4-dimethyltetrahydrofuran-3-yl)-1H-benzo[d]imidazole-6-carboxylic acid] | 0.139 nM
CC1(C)COC[C@H]1n1c(Cc2cc(F)c(-c3ncc(F)c(OCc4ccc(Cl)cc4F)n3)cc2F)nc2ccc(C(=O)O)cc21 [Example 410, (S)-2-(4-(4-((4-chloro-2-fluorobenzyl)oxy)-5-fluoropyrimidin-2-yl)-2,5-difluorobenzyl)-1-(4,4-dimethyltetrahydrofuran-3-yl)-1H-benzo[d]imidazole-6-carboxylic acid] | 0.349 nM
COCCn1c(Cc2cc(F)c(-c3cccc(OCc4ccc(OC(F)(F)F)cc4)n3)cc2F)nc2ccc(C(=O)O)cc21 [Example 32, 2-(2,5-difluoro-4-(6-((4-(trifluoromethoxy)benzyl)oxy)pyridin-2-yl)benzyl)-1-(2-methoxyethyl)-1H-benzo[d]imidazole-6-carboxylic Acid] | 3.43 nM
Cc1ncc(-c2ccc(COc3cccc(-c4cc(F)c(Cc5nc6ccc(C(=O)O)cc6n5[C@@H]5COCC5(C)C)cc4F)n3)c(F)c2)o1 [Example 445, (S)-2-(2,5-difluoro-4-(6-((2-fluoro-4-(2-methyloxazol-5-yl)benzyl)oxy)pyridin-2-yl)benzyl)-1-(4,4-dimethyltetrahydrofuran-3-yl)-1H-benzo[d]imidazole-6-carboxylic acid] | 0.279 nM
CO[C@H](C)Cn1c(Cc2cc(F)c(-c3cccc(OCc4ccc(C#N)cc4)n3)cc2F)nc2c(F)cc(C(=O)O)cc21 [Example 381, (R)-2-(4-(6-((4-cyanobenzyl)oxy)pyridin-2-yl)-2,5-difluorobenzyl)-4-fluoro-1-(2-methoxypropyl)-1H-benzo[d]imidazole-6-carboxylic acid] | 0.267 nM
CC1(C)COC[C@H]1n1c(Cc2c(F)cc(-c3cccc(OCc4ccc(Cl)cc4F)n3)cc2F)nc2c(F)cc(C(=O)O)cc21 [Example 305, (S)-2-(4-(6-((4-chloro-2-fluorobenzyl)oxy)pyridin-2-yl)-2,6-difluorobenzyl)-1-(4,4-dimethyltetrahydrofuran-3-yl)-4-fluoro-1H-benzo[d]imidazole-6-carboxylic acid] | 0.125 nM
Cc1cc(Cc2nc3c(F)cc(C(=O)O)cc3n2[C@@H]2COCC2(C)C)c(Cl)cc1-c1ccc(F)c(OCc2ccc(C#N)cc2F)n1 [Example 138, (S)-2-(2-chloro-4-(6-((4-cyano-2-fluorobenzyl)oxy)-5-fluoropyridin-2-yl)-5-methylbenzyl)-1-(4,4-dimethyltetrahydrofuran-3-yl)-4-fluoro-1H-benzo[d]imidazole-6-carboxylic Acid] | 0.136 nM
CO[C@H]1CCOC[C@H]1n1c(Cc2cc(F)c(-c3cccc(OCc4ccc(C#N)cc4F)n3)cc2F)nc2ccc(C(=O)O)cc21 (single isomer, unassigned) [Example 409] | 0.291 nM
COC(=O)c1ccc2nc(Cc3cc(F)c(-c4cccc(OCc5ccc(Cl)cc5F)n4)cc3F)n([C@@H]3COCC3(C)C)c2c1 [Example 532, (S)-methyl 2-(4-(6-((4-chloro-2-fluorobenzyl)oxy)pyridin-2-yl)-2,5-difluorobenzyl)-1-(4,4-dimethyltetrahydrofuran-3-yl)-1H-benzo[d]imidazole-6-carboxylate] | 3680 nM
